This note sets out measurements from patent publication US20070021430A1, “Novel crystalline form of a phosphoric acid salt of a dipeptidyl peptidase-iv inhibitor” (priority 2003, published 2007).

One data set in a line: solubility in water. The format is physicochemical.
Data set [1] is described as follows: solid-state stability / conversion of crystal form. The format is physicochemical. The procedure:
Form IV was prepared by heating the above monohydrate at 120° C. for about 2 h or by heating the monohydrate above 58° C. for about 8 h. Form IV is metastable and converts into the crystalline monohydrate slowly under ambient conditions and rapidly under high relative humidity (98%) at room temperature. Form IV can also be converted to anhydrate Form I in about 1 h at a temperature above 140° C.

Regarding `N[C@@H](CC(=O)N1CCn2c(nnc2C(F)(F)F)C1)Cc1cc(F)c(F)cc1F` [Form IV, (2R)-4-oxo-4-[3-(trifluoromethyl)-5,6-dihydro[1,2,4]triazolo[4,3-a]pyrazin-7(8H)-yl]-1-(2,4,5-trifluorophenyl)butan-2-amine dihydrogenphosphate anhydrate Form IV], in “solubility in water”, the solubility in water entry was “high”. Besides, the “conversion into the crystalline monohydrate” value in data set [1] (ambient conditions) is “slowly”; in data set [1] (high relative humidity (98%) at room temperature), “rapidly”. Further, the “physical stability of the crystal form” value in data set [1] (solid state) is “metastable”. The “time for conversion to anhydrate Form I” value in data set [1] (temperature above 140° C.) was “about 1 h”.
